PMC7671190 (Journal of medicinal chemistry, 2020)
Read-outs that look alike come from different tables or passages of the source.

Experiments:
[1] = test system: HIV/EBOV-GP pseudotype virus; assay: organism not typed; type: cell-based, Ebola virus (EBOV)
[2] = target: CYP2C9 (Homo sapiens, UniProt P11712)
[3] = target: CYP3A4 (Homo sapiens, UniProt P08684)
[4] = test system: Wild type Ebola virus (1976 Mayinga variant); type: cell-based, Ebola virus (EBOV)
[5] = test system: wild type MARV (Lake Victoria, 2005 Angola); assay: organism not typed; type: cell-based, Marburg virus (MARV); conditions: Vero, read-out: MARV EC50, Vero cells
[6] = A549, read-out: EC50, Ebola pseudovirus (in nM)

Chain of CYP2C9 (P11712 whole entry): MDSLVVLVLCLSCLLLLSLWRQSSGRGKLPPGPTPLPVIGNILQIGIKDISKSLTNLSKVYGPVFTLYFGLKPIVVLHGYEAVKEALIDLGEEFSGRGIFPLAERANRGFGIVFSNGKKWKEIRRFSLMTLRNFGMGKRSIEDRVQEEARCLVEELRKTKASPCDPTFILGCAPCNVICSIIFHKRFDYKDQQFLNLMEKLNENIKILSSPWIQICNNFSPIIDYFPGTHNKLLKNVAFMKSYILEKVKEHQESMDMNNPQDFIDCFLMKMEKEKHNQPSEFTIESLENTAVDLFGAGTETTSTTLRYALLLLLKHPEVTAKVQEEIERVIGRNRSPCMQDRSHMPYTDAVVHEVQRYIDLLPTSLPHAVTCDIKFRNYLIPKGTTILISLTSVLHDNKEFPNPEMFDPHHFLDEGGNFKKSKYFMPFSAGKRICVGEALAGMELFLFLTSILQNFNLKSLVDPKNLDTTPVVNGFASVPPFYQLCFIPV
Chain of CYP3A4 (P08684 whole entry): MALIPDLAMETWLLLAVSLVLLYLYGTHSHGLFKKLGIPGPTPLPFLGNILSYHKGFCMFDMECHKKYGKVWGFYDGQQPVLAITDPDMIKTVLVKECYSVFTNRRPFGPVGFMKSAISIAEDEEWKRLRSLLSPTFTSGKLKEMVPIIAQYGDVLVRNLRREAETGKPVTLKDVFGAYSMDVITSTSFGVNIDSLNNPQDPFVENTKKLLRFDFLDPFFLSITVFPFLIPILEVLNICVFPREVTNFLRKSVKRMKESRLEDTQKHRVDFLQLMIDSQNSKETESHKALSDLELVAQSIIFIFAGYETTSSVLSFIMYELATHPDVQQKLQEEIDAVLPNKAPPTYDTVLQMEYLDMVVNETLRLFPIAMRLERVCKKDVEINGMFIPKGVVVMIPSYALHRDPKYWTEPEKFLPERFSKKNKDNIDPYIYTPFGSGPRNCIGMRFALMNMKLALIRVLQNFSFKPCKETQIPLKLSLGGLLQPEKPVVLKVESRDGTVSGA

O=C(Nc1ccc(C23CC4CC(CC(C4)C2)C3)cc1)c1ccc(CN2CCOCC2)cc1 [Compound 33, N-(4-((1R,3R,5S)-Adamantan-1-yl)phenyl)-4-(morpholinomethyl)benzamide]
EC50 [1, 6]: < 100 nM

O=C(Nc1ccc(C23CC4CC(CC(C4)C2)C3)cc1)c1ccc(CN2CCCCC2)cc1 [Compound 32, N-(4-((1R,3R,5S)-adamantan-1-yl)phenyl)-4-(piperidin-1-ylmethyl)benzamide]
EC50 [1, 6]: < 100 nM | CYP450 inhibition CYP2C9 IC50 [2]: did not inhibit | CYP450 inhibition CYP3A4 IC50 [3]: did not inhibit

O=C(NCCC1CCCCC1)c1ccc(CN2CCCCC2)cc1 [Compound 28, N-(2-Cyclohexylethyl)-4-(piperidin-1-ylmethyl)benzamide]
Drop in potency on replacing the aniline aromatic ring with a two-carbon linker [1]: 2.3 fold

O=C(Nc1ccc(N2CCC(F)(F)CC2)cc1)c1ccc(CN2CCCCC2)cc1 [Compound 34, N-(4-(4,4-Difluoropiperidin-1-yl)phenyl)-4-(piperidin-1-ylmethyl)benzamide]
EC50 ([1]; A549, read-out: Ebola pseudovirus A549 cells EC50): < 1000 nM

COC(=O)c1ccc(NC(=O)c2ccc(CN3CCN(C)CC3)cc2)cc1 [Compound 7, Methyl 4-(4-((4-methylpiperazin-1-yl)methyl)benzamido)benzoate]
inhibition at 12.5 µM ([1]; A549, read-out: Ebola pseudovirus A549 cells % inhibition): 29%

COC(=O)c1ccc(NC(=O)c2ccc(CN3CCCCC3)cc2)cc1 [Compound 5, Methyl 4-(4-(piperidin-1-ylmethyl)benzamido)benzoate]
EBOV (HeLa) EC50 [4]: inactive | EC50 [5]: < 10000 nM
